Experimental data from patent US20260240869A1, “ANTIPSEUDOMONAL FUSIDIC ACID COMPOUNDS” (priority 2022, published 2026).
Like-named read-outs stand apart in the source and are kept apart here.

What was measured:
E. coli MG1655 = experiment: MIC, E. coli MG1655; type: cell-based; settings: Escherichia coli
Protocol: (§1) Antimicrobial Susceptibility Tests. Susceptibility testing was performed in biological triplicate, using the microdilution broth method as outlined by the Clinical and Laboratory Standards Institute. Bacteria were cultured with cation-adjusted Meuller-Hinton broth (Sigma-Aldrich; catalogue number: 90922) or Luria-Bertani (LB) broth (Lennox) in round-bottom 96-well plates (Corning; catalogue number: 3788).

P. aeruginosa PA14 = experiment: MIC, P. aeruginosa PA14; type: cell-based, Pseudomonas aeruginosa; settings: Pseudomonas aeruginosa, PA14
Protocol: as §1

S. aureus ATCC 29213 = experiment: MIC, S. aureus ATCC 29213; type: cell-based; settings: Staphylococcus aureus, ATCC29213, read-out: MIC S. aureus ATCC 29213
Protocol: as §1

[1] = tested on: clinical isolates of P. aeruginosa; experiment: MIC against panel of clinical isolates of P. aeruginosa; type: cell-based, Pseudomonas aeruginosa; settings: for MIC: Pseudomonas aeruginosa
Protocol: as §1

CC(=O)O[C@H]1C[C@@]2(C)[C@@H](C[C@@H](O)[C@H]3[C@@]4(C)CC[C@@H](O)[C@@H](C)[C@@H]4CC[C@@]32C)/C1=C(\CCC=C(C)C)C(=O)O/N=C(\N)CNCCCNCCCNCCCN [FA prodrug, (3R, 4S,5S,8S,9S,10S,11R,13R,14S,16S,Z)-17-((Z)-1,14-diamino-22-methyl-17-oxo-16-oxa-4,8,12,15-tetraazatricosa-14,21-dien-18-ylidene)-3,11-dihydroxy-4,8,10,14-tetramethylhexadecahydro-1H-cyclopenta[a]phenanthren-16-yl acetate]
MIC (E. coli MG1655; MG1655, read-out: E. coli MG1655 MIC): 4 µg/mL
MIC (E. coli MG1655; MG1655, read-out: MIC E. coli MG1655): 4 µg/mL
MIC (P. aeruginosa PA14): 8 µg/mL
MIC (S. aureus ATCC 29213): 1 µg/mL
improved activity relative to FA against 75 clinical isolates ([1]; FIG. 5c): 64-256 ×
MIC ([1]; AR Bank Isolate # 0054): 16 µg/mL
MIC ([1]; AR Bank Isolate # 0064): 16 µg/mL
MIC ([1]; AR Bank Isolate # 0090): 16 µg/mL
MIC ([1]; AR Bank Isolate # 0092): 16 µg/mL
MIC ([1]; AR Bank Isolate # 0095): 16 µg/mL
MIC ([1]; AR Bank Isolate # 0100): 16 µg/mL
MIC ([1]; AR Bank Isolate # 0103): 16 µg/mL
MIC ([1]; AR Bank Isolate # 0110): 16 µg/mL
MIC ([1]; AR Bank Isolate # 0229): 16 µg/mL
MIC ([1]; AR Bank Isolate # 0230): 16 µg/mL
MIC ([1]; AR Bank Isolate # 0231): 8 µg/mL
MIC ([1]; AR Bank Isolate # 0232): 16 µg/mL
MIC ([1]; AR Bank Isolate # 0233): 16 µg/mL
MIC ([1]; AR Bank Isolate # 0234): 8 µg/mL
MIC ([1]; AR Bank Isolate # 0235): 8 µg/mL
MIC ([1]; AR Bank Isolate # 0236): 16 µg/mL
MIC ([1]; AR Bank Isolate # 0237): 16 µg/mL
MIC ([1]; AR Bank Isolate # 0239): 8 µg/mL
MIC ([1]; AR Bank Isolate # 0240): 16 µg/mL
MIC ([1]; AR Bank Isolate # 0241): 16 µg/mL
MIC ([1]; AR Bank Isolate # 0242): 8 µg/mL
MIC ([1]; AR Bank Isolate # 0243): 16 µg/mL
MIC ([1]; AR Bank Isolate # 0244): 16 µg/mL
MIC ([1]; AR Bank Isolate # 0245): 16 µg/mL
MIC ([1]; AR Bank Isolate # 0246): 8 µg/mL
MIC ([1]; AR Bank Isolate # 0248): 8 µg/mL
MIC ([1]; AR Bank Isolate # 0250): 16 µg/mL
MIC ([1]; AR Bank Isolate # 0252): 16 µg/mL
MIC ([1]; AR Bank Isolate # 0254): 32 µg/mL
MIC ([1]; AR Bank Isolate # 0265): 16 µg/mL
MIC ([1]; AR Bank Isolate # 0763): 16 µg/mL
MIC ([1]; AR Bank Isolate # 0767): 16 µg/mL
MIC ([1]; AR Bank Isolate # 0769): 16 µg/mL
MIC ([1]; AR Bank Isolate # 0772): 8 µg/mL
MIC ([1]; Carle Isolate ID # Cl-02): 8 µg/mL
MIC ([1]; Carle Isolate ID # Cl-03): 8 µg/mL
MIC ([1]; Carle Isolate ID # Cl-04): 16 µg/mL
MIC ([1]; Carle Isolate ID # Cl-05): 8 µg/mL
MIC ([1]; Carle Isolate ID # Cl-06): 8 µg/mL
MIC ([1]; Carle Isolate ID # Cl-07): 8 µg/mL
MIC ([1]; Carle Isolate ID # Cl-08): 8 µg/mL
MIC ([1]; Carle Isolate ID # Cl-09): 8 µg/mL
MIC ([1]; Carle Isolate ID # Cl-10): 16 µg/mL
MIC ([1]; Carle Isolate ID # Cl-11): 8 µg/mL
MIC ([1]; Carle Isolate ID # Cl-12): 8 µg/mL
MIC ([1]; Carle Isolate ID # Cl-13): 16 µg/mL
MIC ([1]; Carle Isolate ID # Cl-14): 8 µg/mL
MIC ([1]; Carle Isolate ID # Cl-15): 8 µg/mL
MIC ([1]; Carle Isolate ID # Cl-19): 8 µg/mL
MIC ([1]; Cubist Strain ID # 996): 8 µg/mL
MIC ([1]; Cubist Strain ID # 997): 8 µg/mL
MIC ([1]; Cubist Strain ID # 998): 8 µg/mL
MIC ([1]; Cubist Strain ID # 999): 8 µg/mL
MIC ([1]; Cubist Strain ID # 1000): 16 µg/mL
MIC ([1]; Cubist Strain ID # 1001): 16 µg/mL
MIC ([1]; Cubist Strain ID # 1174): 16 µg/mL
MIC ([1]; Cubist Strain ID # 1175): 16 µg/mL
MIC ([1]; Cubist Strain ID # 1176): 16 µg/mL
MIC ([1]; Cubist Strain ID # 1280): 16 µg/mL
MIC ([1]; Cubist Strain ID # 1282): 16 µg/mL
MIC ([1]; Cubist Strain ID # 1283): 16 µg/mL
MIC ([1]; Cubist Strain ID # 1284): 16 µg/mL
MIC ([1]; Cubist Strain ID # 1586): 16 µg/mL
MIC ([1]; Cubist Strain ID # 1590): 32 µg/mL
MIC ([1]; Cubist Strain ID # 1591): 32 µg/mL
MIC ([1]; Cubist Strain ID # 1592): 32 µg/mL
MIC ([1]; Cubist Strain ID # 1905): 16 µg/mL
MIC ([1]; Cubist Strain ID # 1906): 16 µg/mL
MIC ([1]; Cubist Strain ID # 2242): 8 µg/mL
MIC ([1]; Cubist Strain ID # 2243): 16 µg/mL
MIC ([1]; Cubist Strain ID # 2244): 8 µg/mL
MIC ([1]; Other strains (ref.) 1113): 16 µg/mL
MIC ([1]; Other strains (ref.) 1727): 8 µg/mL
